Read-outs that look alike come from different tables or passages of the source.
Assays:
[1] = test system: inflammatory pain (mechanical hyperalgesia), CFA-injected hind paw; assay type: in vivo, Sprague-Dawley rats
Procedure: The effect of orally administered zoledronic acid on inflammatory pain was examined using the rat complete Freund's adjuvant (CFA) model. Inflammatory pain was induced by injection of 100% CFA in a 75 μL volume into the left hind paws of Sprague-Dawley rats on day 0, followed by assessments on days 1-3. Animals were orally administered vehicle (control), zoledronic acid 18 mg/m^2 (or 3 mg/kg), zoledronic acid 120 mg/m^2 (or 20 mg/kg), or zoledronic acid 900 mg/m^2 (or 150 mg/kg) daily on days 1-3. Drug was dissolved in distilled water and prepared fresh daily. Animals were fasted prior to dosing. Under current FDA guidelines for extrapolating starting dosages from animals to humans, dosages expressed in mg/m^2 are considered equivalent between mammalian species. Thus, for example, 18 mg/m^2 in a rat is considered equivalent to 18 mg/m^2 in a human being, while 3 mg/kg in a rat may not be equivalent to 3 mg/kg in a human being.
Values for inflammatory pain (mechanical hyperalgesia) in the vehicle and drug-treated animals were obtained on day 0 prior to CFA injection, and at baseline and post-treatment on days 1-3. Pain was assessed using a digital Randall-Selitto device (dRS; IITC Life Sciences, Woodland Hills, Calif.). Animals were placed in a restraint sling that suspended the animal, leaving the hind limbs available for testing. Paw compression threshold was measured by applying increasing pressure to the plantar surface of the hind paw with a dome-shaped tip placed between the 3rd and 4th metatarsus. Pressure was applied gradually over approximately 10 seconds. Measurements were taken from the first observed nocifensive behavior of vocalization, struggle or withdrawal. A cut-off value of 300 g was used to prevent injury to the animal.
Reversal of inflammatory pain was calculated according to the formula:
% reversal=(Post-treatment−Post-CFA baseline)/(Pre-CFA baseline−Post-CFA baseline)×100.
The experiment was carried out using 9-10 animals per group.

[2] = test system: complex regional pain syndrome (CRPS), fracture hindpaw; assay: rat tibia fracture model of complex regional pain syndrome (CRPS): von Frey, weight bearing, edema, warmth; assay type: in vivo; details: oral 18 mg/m^2/day (3 mg/kg/day) for 28 days
Procedure: The effect of orally administered zoledronic acid was examined in the rat tibia fracture model of complex regional pain syndrome (CRPS). CRPS was induced in the rats by fracturing the right distal tibias of the animals and casting the fractured hindpaws for 4 weeks, as described in Guo T Z et al. (Pain. 2004; 108:95-107).
Animals were orally administered either vehicle (control) or zoledronic acid, in a dosage of 18 mg/m^2/day (3 mg/kg/day) for 28 days, starting on the day of fracture and casting. Drug was dissolved in distilled water and administered by gavage. Animals were fasted for 4 hours before and 2 hours after dosing. At the end of the 28-day period, casts were removed, and on the following day, the rats were tested for hindpaw pain, edema, and warmth.
Pain was assessed by measuring hyperalgesia, and weight bearing. […]
An incapacitance device (IITC Inc. Life Science, Woodland, Calif., USA) was used to measure hindpaw weight bearing, a postural effect of pain. […] Eight readings (excluding the highest and lowest ones) were averaged to calculate the bilateral hindpaw weight-bearing values. Weight bearing data were analyzed as the ratio between right (fracture) and left hindpaw weight bearing values ((2R/(R+L))×100%). […]
The temperature of the hindpaw was measured using a fine wire thermocouple (Omega, Stanford, Conn., USA) applied to the paw skin. […]

SMILES: O=P(O)(O)C(O)(Cn1ccnc1)P(=O)(O)O [zoledronic acid]
- paw compression thresholds compared to vehicle ([1]; oral 18 mg/m^2, entire measurement period after 30 minutes from start of treatment): higher than for vehicle
- paw compression thresholds compared to vehicle ([1]; oral 120 mg/m^2 (20 mg/kg) daily days 1-3, all time points): approximately equal or inferior to vehicle
- toxicity ([1]; oral 900 mg/m^2 (150 mg/kg) daily days 1-3, all animals euthanized two days after cessation of dosing): significant toxicity
- paw compression thresholds compared to vehicle ([1]; oral 900 mg/m^2, day three): greater than for vehicle
- paw compression thresholds compared to vehicle ([1]; oral 900 mg/m^2, first two days of dosing): lower than vehicle
- reversal of fracture induced pain (von Frey pain threshold) as compared to vehicle [2]: 77%
